Assay results reported in patent US7022875B2, “Thiobutacin and antifungal and antioomycete composition for controlling plant diseases using the same” (Korea University Industry and Academy Cooperation Foundation, priority 2003, dated 2006).
≈ marks a conversion by molar mass, not a printed value.

What was measured:
Ralstonia solanacearum = assay: microbe, parasite or virus in culture; format: cell-based; conditions: 96 h
[1] = system: Xanthomonas campestris pv. Vesicatoria; assay: microbe, parasite or virus in culture; format: cell-based; conditions: 96 h, 28° C., 4 days
[2] = system: Phytophthora capsici infection on pepper plants; assay: Control efficacy against Phytophthora blight on pepper plants in a growth room; format: in vivo
Method: The commercial fungicide metalaxyl was used to compare the antifungal activity with thiobutacin against Phytophthora capsici infection on pepper plants in a growth room. Before the pepper plant was inoculated with Phytophthora capsici infection, disease severity was determined both for each treated with various concentrations of thiobutacin and metalaxyl and for the untreated control. Disease severity on pepper plants was rated daily after inoculation based on a scale 0-5: 0=no visible disease symptoms; 1=leaves slightly wilted with brownish lesions beginning to appear on stems; 2=30-50% of entire plant diseased; 3=50-70% of entire plant diseased; 4=70-90% of entire plant diseased; and 5=plant dead.

Magnaporthe grisea = assay: microbe, parasite or virus in culture; format: cell-based
Candida albicans = assay: microbe, parasite or virus in culture; format: cell-based; conditions: 96 h, 28° C., 4 days
Botrytis cinerea = assay: MIC in microtiter plates; format: cell-based; conditions: 96 h, 28° C., 4 days, complete inhibition of growth
[3] = system: Fusarium oxysporum f.sp. cucumerinum; assay: MIC in microtiter plates; format: cell-based
[4] = system: Erwinia carotovora subsp. carotovora; assay: microbe, parasite or virus in culture; format: cell-based; conditions: Pectobacterium carotovorum, 96 h; 28° C., 4 days
[5] = system: Colletotrichum orbiculare; assay: MIC in microtiter plates; format: cell-based
Alternaria mali = assay: MIC in microtiter plates; format: cell-based
Bacillus subtilis = assay: microbe, parasite or virus in culture; format: cell-based; conditions: 96 h, 28° C., 4 days
Cladosporium cucumerinum = assay: MIC in microtiter plates; format: cell-based; conditions: 96 h, 28° C., 4 days, complete inhibition of growth
Saccharomyces cerevisiae = assay: microbe, parasite or virus in culture; format: cell-based; conditions: 96 h, 28° C., 4 days
Rhizoctonia solani = assay: MIC in microtiter plates; format: cell-based
Phytophthora capsici = assay: microbe, parasite or virus in culture; format: cell-based; conditions: 96 h, 28° C., 4 days
[6] = from 4 days after inoculation, treated plants
[7] = from 5 days after inoculation, 10 μg/ml
[8] = 96 h, 28° C., 4 days, complete inhibition of growth

`CSC(CC(=O)c1ccccc1N)C(=O)O` (stereo not drawn) [thiobutacin, 4-(2-aminophenyl)-4-oxo-2-methylthio-butanoic acid] was tested, and the MIC (Ralstonia solanacearum) was > 100 µg/mL, the MIC [1] was > 100 µg/mL and the “disease symptoms on pepper plants” value ([2]; after 10 days, 100 μg/ml) was “slight damages”. The “disease symptoms on pepper plants” value ([2]; after 10 days, 500 μg/ml) was “did not show any phytophthora infection”, the “disease symptoms on pepper plants” value [2, 6] was “did not exhibit any symptoms” and the “disease symptoms on pepper plants” value [2, 7] was “exhibited the disease development in the leaves”. For the same molecule, the “growth inhibition (in words)” value (Magnaporthe grisea; Magnaporthe grisea) was “not inhibited”, the MIC (Magnaporthe grisea; Pyricularia oryzae, 96 h) was > 100 µg/mL and the MIC (Candida albicans) was > 100 µg/mL. For the same molecule, the MIC (Botrytis cinerea) was 50 µg/mL (≈ 209 µM), the MIC ([3]; 96 h, Fusarium oxysporum f.sp. cucumerinum, 28° C., 4 days, complete inhibition of growth) was > 100 µg/mL and the “growth inhibition (in words)” value ([3]; Fusarium oxysporum f. sp. cucumerinum) was “not inhibited”. The MIC [4] was > 100 µg/mL, the “growth inhibition (in words)” value [5] was “not inhibited” and the MIC [5, 8] was > 100 µg/mL. For the same molecule, the “growth inhibition (in words)” value (Alternaria mali) was “not inhibited”, the MIC (Alternaria mali; [8]) was > 100 µg/mL and the MIC (Bacillus subtilis) was > 100 µg/mL. For the same molecule, the MIC (Cladosporium cucumerinum) was 50 µg/mL (≈ 209 µM), the MIC (Saccharomyces cerevisiae) was 30 µg/mL (≈ 125 µM) and the “growth inhibition (in words)” value (Rhizoctonia solani) was “not inhibited”. The MIC (Rhizoctonia solani; [8]) was > 100 µg/mL and the MIC (Phytophthora capsici) was 10 µg/mL (≈ 41.8 µM).

With `COCC(=O)N(c1c(C)cccc1C)C(C)C(=O)OC` (stereo not drawn) [metalaxyl, reference compound] the “disease symptoms on pepper plants” value [2, 6] was “did not exhibit any symptoms”, the “disease symptoms on pepper plants” value [2, 7] was “slight disease symptoms” and the “disease symptoms on pepper plants” value ([2]; from 5 days after inoculation, 50 μg/ml) was “exhibited the disease development in the leaves”. For the same molecule, the “disease symptoms on pepper plants” value ([2]; higher concentrations than 100 μg/ml) was “did not show any phytophthora development”.
